In patent US9957268B2, “1H-pyrrolo[2,3,c]pyridin-7(6H)-ones and pyrazolo[3,4-c]pyridin-7(6H)-ones as inhibitors of BET proteins” (Incyte Corporation, priority 2014, dated 2018) one finds IC50 data, which are given here for 25 compounds.

In general, pIC50 refers to the IC50 on a negative log10 scale, so that one unit is a factor of ten. Higher therefore signals a small IC50.

pIC50: −log10 of the molar value. Bounds are passed on as bounds.

One assay concerns the target BRD4-BD1 (Homo sapiens (Human), UniProt O60885). Kind of assay: BRD4 AlphaScreen assay (BRD4-BD1). The assay is classed as binding. To be noted: biotin-labeled tetra-acetylated histone H4 peptide. How it is done:
(§1) BRD4-BD1 and BRD4-BD2 assays were conducted in white 384-well polystyrene plate in a final volume of 40 μL for BD1 and 60 μL for BD2. Inhibitors were first serially diluted in DMSO and added to the plate wells before the addition of other reaction components. The final concentration of DMSO in the assay was 1.25% (BD1) and 0.83% (BD2). The assays were carried out at room temperature in the assay buffer (50 mM Tris-HCl, pH 7.5, 0.01% Tween-20, 0.01% BSA, 5 mM DTT), containing 50 nM Biotin-labeled tetra-acetylated histone H4 peptide (H4Ac4) and BRD4-BD1 or BRD4-BD2 protein at concentration less than 1 nM. The incubation for 75 min. was followed by the addition of 20 μL of assay buffer supplemented with Streptavidin donor beads (PerkinElmer 6760002) and GSH Acceptor beads (PerkinElmer-AL109C) at final concentration 2-4 μg/mL under reduced light. After plate sealing, the plate was incubated in the dark at room temperature for 75 min. before reading on a PHERAstar FS plate reader (BMG Labtech). IC50 determination was performed by fitting the curve of percent control activity versus the log of the inhibitor concentration using the GraphPad Prism 5.0 software.
A general note: In Alpha technology, singlet oxygen from a donor bead excites a nearby acceptor bead.

The target in the next assay is BRD4-BD2 (Homo sapiens (Human), UniProt O60885). Kind of assay: BRD4 AlphaScreen assay (BRD4-BD2). The note with it: biotin-labeled tetra-acetylated histone H4 peptide. It is filed as binding. How it is done: as §1

Consider `CCC1Oc2c(cccc2-c2cn(C)c(=O)c3[nH]ccc23)NC1=O` (centres unmarked) [Example 4, 2-ethyl-8-(6-methyl-7-oxo-6,7-dihydro-1H-pyrrolo[2,3-c]pyridin-4-yl)-2H-1,4-benzoxazin-3(4H)-one], for which the pIC50 was 6.00 to 7.00 at BRD4-BD1 and not below 7.00 against BRD4-BD2.
For `Cn1cc(-c2cccc3c2OC(c2ccccn2)C(=O)N3)c2cc[nH]c2c1=O` (centres unmarked) [Example 5, 8-(6-methyl-7-oxo-6,7-dihydro-1H-pyrrolo[2,3-c]pyridin-4-yl)-2-pyridin-2-yl-2H-1,4-benzoxazin-3(4H)-one 2,2,2-trifluoroacetate] the same measures were 6.00 to 7.00 and not below 7.00.
`Cn1cc(-c2cccc3c2OC(C2CC2)C(=O)N3)c2cc[nH]c2c1=O` (centres unmarked) [Example 6, 2-cyclopropyl-8-(6-methyl-7-oxo-6,7-dihydro-1H-pyrrolo[2,3-c]pyridin-4-yl)-2H-1,4-benzoxazin-3(4H)-one]: the pIC50 against BRD4-BD1 and against BRD4-BD2 was not below 7.00 throughout.
In the case of `Cn1cc(-c2cccc3c2OC(C2CCOCC2)C(=O)N3)c2cc[nH]c2c1=O` (centres unmarked) [Example 7, 8-(6-methyl-7-oxo-6,7-dihydro-1H-pyrrolo[2,3-c]pyridin-4-yl)-2-(tetrahydro-2H-pyran-4-yl)-2H-1,4-benzoxazin-3(4H)-one], the pIC50 at BRD4-BD1 and on BRD4-BD2 was not below 7.00 throughout.
Turning to `CCC1Oc2c(-c3cn(C)c(=O)c4[nH]ccc34)cccc2N(C)C1=O` (centres unmarked) [Example 8, 2-ethyl-4-methyl-8-(6-methyl-7-oxo-6,7-dihydro-1H-pyrrolo[2,3-c]pyridin-4-yl)-2H-1,4-benzoxazin-3(4H)-one], the pIC50 at BRD4-BD1 is 6.00 to 7.00; against BRD4-BD2, not below 7.00.
Take `COc1cc(-c2cn(C)c(=O)c3[nH]ccc23)c2c(c1)N(C)C(=O)C(C(C)C)O2` (centres unmarked) [Example 10, 2-isopropyl-6-methoxy-4-methyl-8-(6-methyl-7-oxo-6,7-dihydro-1H-pyrrolo[2,3-c]pyridin-4-yl)-2H-1,4-benzoxazin-3(4H)-one]: the pIC50 against BRD4-BD1 and against BRD4-BD2 was not below 7.00 in each case.
Take `COc1cc(-c2cn(C)c(=O)c3[nH]ccc23)c2c(c1)N(CC(=O)O)C(=O)C(C(C)C)O2` (centres unmarked) [Example 11, [2-isopropyl-6-methoxy-8-(6-methyl-7-oxo-6,7-dihydro-1H-pyrrolo[2,3-c]pyridin-4-yl)-3-oxo-2,3-dihydro-4H-1,4-benzoxazin-4-yl]acetic acid]: the pIC50 against BRD4-BD1 and against BRD4-BD2 was 6.00 to 7.00 in each case.
On to `CNC(=O)CN1C(=O)C(C(C)C)Oc2c(-c3cn(C)c(=O)c4[nH]ccc34)cc(OC)cc21` (centres unmarked) [Example 12, 2-[2-isopropyl-6-methoxy-8-(6-methyl-7-oxo-6,7-dihydro-1H-pyrrolo[2,3-c]pyridin-4-yl)-3-oxo-2,3-dihydro-4H-1,4-benzoxazin-4-yl]-N-methylacetamide], for which the pIC50 against BRD4-BD1 was 6.00 to 7.00; at BRD4-BD2 it was not below 7.00.
In the case of `COc1cc(-c2cn(C)c(=O)c3[nH]ccc23)c2c(c1)N(CC(=O)N1CCN(C)CC1)C(=O)C(C(C)C)O2` (centres unmarked) [Example 14, 2-isopropyl-6-methoxy-8-(6-methyl-7-oxo-6,7-dihydro-1H-pyrrolo[2,3-c]pyridin-4-yl)-4-[2-(4-methylpiperazin-1-yl)-2-oxoethyl]-2H-1,4-benzoxazin-3(4H)-one], the pIC50 on BRD4-BD1 was 6.00 to 7.00; against BRD4-BD2 it was not below 7.00.
For `COc1cc(-c2cn(C)c(=O)c3[nH]ccc23)c2c(c1)N(Cc1ccncc1)C(=O)C(C(C)C)O2` (centres unmarked) [Example 15, 2-isopropyl-6-methoxy-8-(6-methyl-7-oxo-6,7-dihydro-1H-pyrrolo[2,3-c]pyridin-4-yl)-4-(pyridin-4-ylmethyl)-2H-1,4-benzoxazin-3(4H)-one] the same measures were not below 7.00 and not below 7.00.
For `CC(C)C1Oc2c(cc(C#N)cc2-c2cn(C)c(=O)c3[nH]ccc23)NC1=O` (centres unmarked) [Example 17, 2-isopropyl-8-(6-methyl-7-oxo-6,7-dihydro-1H-pyrrolo[2,3-c]pyridin-4-yl)-3-oxo-3,4-dihydro-2H-1,4-benzoxazine-6-carbonitrile] the same measures were 6.00 to 7.00 and not below 7.00.
Turning to `CC(C)C1Oc2c(-c3cn(C)c(=O)c4[nH]ccc34)cc(C#N)cc2N(C)C1=O` (centres unmarked) [Example 18, 2-isopropyl-4-methyl-8-(6-methyl-7-oxo-6,7-dihydro-1H-pyrrolo[2,3-c]pyridin-4-yl)-3-oxo-3,4-dihydro-2H-1,4-benzoxazine-6-carbonitrile], the pIC50 against BRD4-BD1 is 6.00 to 7.00; against BRD4-BD2, not below 7.00.
Regarding `CC(C)C1Oc2c(-c3cn(C)c(=O)c4[nH]ccc34)cc(C(N)=O)cc2N(C)C1=O` (centres unmarked) [Example 19, 2-isopropyl-4-methyl-8-(6-methyl-7-oxo-6,7-dihydro-1H-pyrrolo[2,3-c]pyridin-4-yl)-3-oxo-3,4-dihydro-2H-1,4-benzoxazine-6-carboxamide], the pIC50 at BRD4-BD1 is 6.00 to 7.00; on BRD4-BD2, not below 7.00.
In the case of `CNC(=O)c1cc2c(c(-c3cn(C)c(=O)c4[nH]ccc34)c1)OC(C(C)C)C(=O)N2` (centres unmarked) [Example 20, 2-isopropyl-N-methyl-8-(6-methyl-7-oxo-6,7-dihydro-1H-pyrrolo[2,3-c]pyridin-4-yl)-3-oxo-3,4-dihydro-2H-1,4-benzoxazine-6-carboxamide], the pIC50 against BRD4-BD1 and on BRD4-BD2 was not below 7.00 in each case.
In the case of `CC(C)C1Oc2c(cc([N+](=O)[O-])cc2-c2cn(C)c(=O)c3[nH]ccc23)NC1=O` (centres unmarked) [Example 21, 2-isopropyl-8-(6-methyl-7-oxo-6,7-dihydro-1H-pyrrolo[2,3-c]pyridin-4-yl)-6-nitro-2H-1,4-benzoxazin-3(4H)-one], the figures for the pIC50 on BRD4-BD1 and at BRD4-BD2 were 6.00 to 7.00 and not below 7.00, respectively.
For `COc1cc(-c2cn(C)c(=O)c3[nH]ccc23)c2c(c1)N(C)CC(C(C)C)O2` (centres unmarked) [Example 22, 4-(2-isopropyl-6-methoxy-4-methyl-3,4-dihydro-2H-1,4-benzoxazin-8-yl)-6-methyl-1,6-dihydro-7H-pyrrolo[2,3-c]pyridin-7-one] the same measures were 6.00 to 7.00 and not below 7.00.
For `COc1cc2c(c(-c3cn(C)c(=O)c4[nH]ccc34)c1)OC(C1CC1)C(=O)N2` (centres unmarked) [Example 23, 2-cyclopropyl-6-methoxy-8-(6-methyl-7-oxo-6,7-dihydro-1H-pyrrolo[2,3-c]pyridin-4-yl)-2H-1,4-benzoxazin-3(4H)-one] the same measures were not below 7.00 and not below 7.00.
For `COc1cc2c(c(-c3cn(C)c(=O)c4[nH]ccc34)c1)OC(c1ccccc1)C(=O)N2` (centres unmarked) [Example 24, 6-methoxy-8-(6-methyl-7-oxo-6,7-dihydro-1H-pyrrolo[2,3-c]pyridin-4-yl)-2-phenyl-2H-1,4-benzoxazin-3(4H)-one] the same measures were not below 7.00 and not below 7.00.
For `COc1cc2c(c(-c3cn(C)c(=O)c4[nH]ccc34)c1)OC(c1ccc(F)cc1Cl)C(=O)N2` (centres unmarked) [Example 25, 2-(2-chloro-4-fluorophenyl)-6-methoxy-8-(6-methyl-7-oxo-6,7-dihydro-1H-pyrrolo[2,3-c]pyridin-4-yl)-2H-1,4-benzoxazin-3(4H)-one], the pIC50 at BRD4-BD1 and against BRD4-BD2 was not below 7.00 throughout.
Turning to `COc1cc2c(c(-c3cn(C)c(=O)c4[nH]ncc34)c1)OC(C(C)C)C(=O)N2` (centres unmarked) [Example 26, 2-isopropyl-6-methoxy-8-(6-methyl-7-oxo-6,7-dihydro-1H-pyrazolo[3,4-c]pyridin-4-yl)-2H-1,4-benzoxazin-3(4H)-one], the pIC50 on BRD4-BD1 and against BRD4-BD2 was not below 7.00 in each case.
`COc1cc2c(c(-c3cn(C)c(=O)c4[nH]ccc34)c1)OC(C)(C)C(=O)N2` [Example 27, 6-methoxy-2,2-dimethyl-8-(6-methyl-7-oxo-6,7-dihydro-1H-pyrrolo[2,3-c]pyridin-4-yl)-2H-1,4-benzoxazin-3(4H)-one]: the pIC50 against BRD4-BD1 and against BRD4-BD2 was not below 7.00 in each case.
Turning to `COc1cc2c(c(-c3cn(C)c(=O)c4[nH]ncc34)c1)OC(C)(C)C(=O)N2` [Example 29, 6-methoxy-2,2-dimethyl-8-(6-methyl-7-oxo-6,7-dihydro-1H-pyrazolo[3,4-c]pyridin-4-yl)-2H-1,4-benzoxazin-3(4H)-one], the pIC50 against BRD4-BD1 and against BRD4-BD2 was not below 7.00 in each case.
As for `Cn1cc(-c2cccc3c2OC2(CC2)C(=O)N3)c2cc[nH]c2c1=O` [Example 30, 8-(6-methyl-7-oxo-6,7-dihydro-1H-pyrrolo[2,3-c]pyridin-4-yl)spiro[1,4-benzoxazine-2,1′-cyclopropan]-3(4H)-one], the pIC50 against BRD4-BD1 and on BRD4-BD2 was not below 7.00 in each case.
Turning to `Cn1cc(-c2cccc3c2OC(C)(C)C(=O)N3)c2cc[nH]c2c1=O` [Example 31, 2,2-dimethyl-8-(6-methyl-7-oxo-6,7-dihydro-1H-pyrrolo[2,3-c]pyridin-4-yl)-2H-1,4-benzoxazin-3(4H)-one], the pIC50 against BRD4-BD1 and against BRD4-BD2 was not below 7.00 each time.
As to `Cn1cc(-c2cccc3c2NC(C)(C)C(=O)N3)c2cc[nH]c2c1=O` [Example 32, 3,3-dimethyl-5-(6-methyl-7-oxo-6,7-dihydro-1H-pyrrolo[2,3-c]pyridin-4-yl)-3,4-dihydroquinoxalin-2(1H)-one], the pIC50 against BRD4-BD1 is 6.00 to 7.00; against BRD4-BD2 it was not below 7.00.
